Laboratory results as given in patent publication US9999616B2 (ZENITH EPIGENETICS LTD., priority 2013, dated 2018).

Legend:
[1] = tested on: hIL-6 mRNA; assay: Inhibition of hIL-6 mRNA transcription in LPS-stimulated U937 macrophages; format: cell-based, Human; conditions: Homo sapiens, U-937, PMA-differentiated U937 cells, 1 h pretreatment, LPS 3 h, read-out: IL-6 activity
Method: Human leukemic monocyte lymphoma U937 cells (CRL-1593.2) were plated at a density of 3.2×10^4 cells per well in a 96-well plate in 100 μL RPMI-1640 containing 10% FBS and penicillin/streptomycin, and differentiated into macrophages for 3 days in 60 ng/mL PMA ([…]) at 37° C. in 5% CO2 prior to the addition of compound. The cells were pretreated for 1 h with increasing concentrations of test compound in 0.1% DMSO prior to stimulation with 1 ug/mL lipopolysaccharide from Escherichia coli. Triplicate wells were used for each concentration. The cells were incubated at 37° C., 5% CO2 for 3 h before the cells were harvested. At time of harvest, media was removed and cells were rinsed in 200 μL PBS. Cells were harvested using the mRNA Catcher PLUS kit according to manufacturer's instructions. The eluted mRNA was then used in a one-step quantitative real-time PCR reaction using components of the RNA UltraSense™ One-Step Kit (Life Technologies) together with Applied Biosystems TaqMan® primer-probes for hIL-6 and Cyclophilin. Real-time PCR plates were run on a ViiA™7 real time PCR machine (Applied Biosystems), data was analyzed, normalizing the Ct values for hlL-6 to an internal control, prior to determining the fold expression of each sample, relative to the control.

[2] = tested on: c-myc in Human AML MV4-11 cells; assay: Inhibition of cMYC expression (mRNA, real-time PCR) in MV4-11 cells; format: cell-based; conditions: 3 h treatment, cMYC mRNA by real-time PCR
Method: MV4-11 cells (CRL-9591) were plated at a density of 2.5×10^4 cells per well in 96 well U-bottom plates and treated with increasing concentrations of test compound or DMSO (0.1%) in IMDM media containing 10% FBS and penicillin/streptomycin, and incubated for 3 h at 37′C. Triplicate wells were used for each concentration. Cells were pelleted by centrifugation and harvested using the mRNA Catcher PLUS kit according to manufacturer's instructions. The eluted mRNA isolated was then used in a one-step quantitative real-time PCR reaction, using components of the RNA UltraSense™ One-Step Kit (Life Technologies) together with Applied Biosystems TaqMan® primer-probes for cMYC and Cyclophilin. Real-time PCR plates were run on a ViiA™7 real time PCR machine (Applied Biosystems), data was analyzed, normalizing the Ct values for cMYC to an internal control, prior to determining the fold expression of each sample, relative to the control.

[3] = target: Brd4 bromodomain 1 (BRD4(1)) (Homo sapiens, UniProt O60885); assay: Inhibition of tetra-acetylated histone H4 binding to Brd4 bromodomain 1, measured by FRET (HTRF); design: made in house; host or cells: E. coli BL21(DE3); conditions: 2 h at room temperature
Summary of the method: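 N-terminally His-tagged bromodomain (200 nM), expressed in E. coli and purified by Ni affinity and size exclusion, was incubated with biotinylated tetra-acetylated H4 peptide (25-50 nM), Eu-cryptate streptavidin and XL665 anti-His in HEPES pH 7.4 buffer with 0.2% DMSO. Reactions ran 2 h at room temperature. IC50 came from the 665/620 nm fluorescence decrease.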

[4] = tested on: Human AML MV-4-11 cells; assay: Inhibition of cell proliferation in MV4-11 cells (CellTiter Aqueous One); format: cell-based; conditions: for IC50: MV4-11, 72 h
Method: MV4-11 cells (CRL-9591) were plated at a density of 5×10^4 cells per well in 96 well flat bottom plates and treated with increasing concentrations of test compound or DMSO (0.1%) in IMDM media containing 10% FBS and penicillin/streptomycin. Triplicate wells were used for each concentration and a well containing only media was used as a control. Plates were incubated at 37° C., 5% CO2 for 72 h before adding 20 µL of the CellTiter Aqueous One Solution (Promega) to each well and incubated at 37° C., 5% CO2 for an additional 3-4 h. The absorbance was read at 490 nm in a spectrophotometer and the percentage of cell titer relative to DMSO-treated cells was calculated after correcting for background by subtracting the blank well's signal. IC50 values were calculated using the GraphPad Prism software.

IC50 [1] [nM]	IC50 [2] [nM]	IC50 [3] [nM]	IC50 [4] [nM]	SMILES	Cell Proliferation activity ([4]; 72 h)
300 to 3000	300 to 3000	≤ 300	≤ 300	Cc1noc(C)c1-c1cc(-c2cccc(C#N)c2C)c2nc(N3CCC(N)CC3)[nH]c2c1 [Example Compound 209, 3-(2-(4-amino-piperidin-1-yl)-6-(3,5-dimethyl-isoxazol-4-yl)-1H-benzo[d]imidazol-4-yl)-2-methyl benzonitrile]	
≤ 300	300 to 3000	≤ 300	300 to 3000	Cc1nn(C)cc1-c1cc(-c2c(C)noc2C)cc2[nH]cnc12 [Example Compound 18, 4-(4-(1,3-dimethyl-1H-pyrazol-4-yl)-1H-benzo [d]imidazol-6-yl)-3,5-dimethyl isoxazole]	
300 to 3000	300 to 3000	≤ 300	300 to 3000	Cc1nc2c(-c3cc(C(F)(F)F)ccc3F)cc(-c3c(C)noc3C)cc2[nH]1 [Example Compound 157, 4-(4-(2-fluoro-5-(trifluoro-methyl)phenyl)-2-methyl-1H-benzo[d]imidazol-6-yl)-3,5-dimethyl isoxazole]	
300 to 3000	≤ 300	≤ 300	300 to 3000	Cc1nc2c(-c3ccccc3OC(F)(F)F)cc(-c3c(C)noc3C)cc2[nH]1 [Example Compound 77, 3,5-dimethyl-4-(2-methyl-4-(2-(trifluoro-methoxy)phenyl)-1H-benzo[d]imidazol-6-yl)isoxazole]	
300 to 3000	300 to 3000	300 to 3000	300 to 3000	Cc1conc1Nc1cc(-c2c(C)noc2C)cc2[nH]cnc12 [Example Compound 44, N-(6-(3,5-dimethyl-isoxazol-4-yl)-1H-benzo[d]imidazol-4-yl)-4-methyl-isoxazol-3-amine]	
300 to 3000	300 to 3000	300 to 3000	3000 to 30000	Cc1nc2c(-c3ncccc3C)cc(-c3c(C)noc3C)cc2[nH]1 [Example Compound 84, 3,5-dimethyl-4-(2-methyl-4-(3-methyl-pyridin-2-yl)-1H-benzo[d]imidazol-6 yl)isoxazole]	
≤ 300	≤ 300	≤ 300	≤ 300	Cc1n[nH]c(C)c1-c1cc(-c2c(C)noc2C)cc2[nH]nc(C)c12 [Example Compound 180, 4-(4-(3,5-dimethyl-1H-pyrazol-4-yl)-3-methyl-1H-indazol-6-yl)-3,5-dimethylisoxazole]	
≤ 300	≤ 300	≤ 300	300 to 3000	Cc1noc(C)c1-c1cc(-c2c(C)noc2C)c2nc(NC3CCOCC3)[nH]c2c1 [Example Compound 229, 4,6-bis(3,5-dimethyl-isoxazol-4-yl)-N-(tetrahydro-2H-pyran-4-yl)-1H-benzo[d] imidazol-2-amine]	
300 to 3000	300 to 3000	≤ 300	300 to 3000	Cc1noc(C)c1-c1cc(NCc2ccc(F)cc2)c2nc[nH]c2c1 [Example Compound 38, 6-(3,5-dimethyl-isoxazol-4-yl)-N-(4-fluorobenzyl)-1H-benzo[d] imidazol-4-amine]	
300 to 3000	300 to 3000	≤ 300	300 to 3000	Cc1nc2c(-c3ccc4nccnc4c3)cc(-c3c(C)noc3C)cc2[nH]1 [Example Compound 153, 3,5-dimethyl-4-(2-methyl-4-(quinoxalin-6-yl)-1H-benzo[d]imidazol-6-yl)isoxazole]	
≤ 300	≤ 300	≤ 300	300 to 3000	Cc1nc2c(Oc3ccccc3)cc(-c3c(C)noc3C)cc2[nH]1 [Example Compound 148, 3,5-dimethyl-4-(2-methyl-4-phenoxy-1H-benzo[d]imidazol-6-yl)isoxazole]	
≤ 300	300 to 3000	≤ 300	300 to 3000	Cc1nc2c(-c3cnccc3C)cc(-c3c(C)noc3C)cc2[nH]1 [Example Compound 53, 3,5-dimethyl-4-(2-methyl-4-(4-methyl-pyridin-3-yl)-1H-benzo[d]imidazol-6-yl)isoxazole]	
≤ 300	300 to 3000	≤ 300	300 to 3000	Cc1ncsc1-c1cc(-c2c(C)noc2C)cc2[nH]cnc12 [Example Compound 26, 3,5-dimethyl-4-(4-(4-methylthiazol-5-yl)-1H-benzo[d]imidazol-6-yl)isoxazole]	
300 to 3000	300 to 3000	300 to 3000	300 to 3000	COc1ccc(Nc2cc(-c3c(C)noc3C)cc3[nH]cnc23)cc1 [Example Compound 25, 6-(3,5-dimethylisoxazol-4-yl)-N-(4-methoxyphenyl)-1H-benzo[d]imidazol-4-amine]	
300 to 3000	300 to 3000	300 to 3000		Cc1nc2c(N3CCC3=O)cc(-c3c(C)noc3C)cc2[nH]1 [Example Compound 147, 1-(6-(3,5-dimethyl-isoxazol-4-yl)-2-methyl-1H-benzo[d]imidazol-4-yl)azetidin-2-one]	Not active
300 to 3000	300 to 3000	300 to 3000	300 to 3000	Cc1noc(C)c1-c1cc(NCCc2ccccc2)c2nc[nH]c2c1 [Example Compound 142, 6-(3,5-dimethyl-isoxazol-4-yl)-N-phenethyl-1H-benzo[d] imidazol-4-amine]	
≤ 300	300 to 3000	≤ 300	300 to 3000	CCOc1ncccc1-c1cc(-c2c(C)noc2C)cc2[nH]c(C)nc12 [Example Compound 109, 4-(4-(2-ethoxy-pyridin-3-yl)-2-methyl-1H-benzo[d]imidazol-6-yl)-3,5-dimethyl isoxazole]	
300 to 3000	300 to 3000	≤ 300	300 to 3000	Cc1nc2c(N3CCOCC3)cc(-c3c(C)noc3C)cc2[nH]1 [Example Compound 173, 4-(6-(3,5-dimethyl-isoxazol-4-yl)-2-methyl-1H-benzo[d]imidazol-4-yl) morpholine]	
300 to 3000	300 to 3000	≤ 300	300 to 3000	Cc1nc2c(-c3cnc4ccccc4c3)cc(-c3c(C)noc3C)cc2[nH]1 [Example Compound 163, 3,5-dimethyl-4-(2-methyl-4-(quinolin-3-yl)-1H-benzo[d]imidazol-6-yl)isoxazole]	
≤ 300	≤ 300	≤ 300	300 to 3000	Cc1nc2c(-c3cc(Cl)ccc3C)cc(-c3c(C)noc3C)cc2[nH]1 [Example Compound 105, 4-(4-(5-chloro-2-methyl-phenyl)-2-methyl-1H-benzo[d]imidazol-6-yl)-3,5-dimethyl isoxazole]	
300 to 3000	300 to 3000	≤ 300	300 to 3000	Cc1noc(C)c1-c1cc(-c2c(C)noc2C)c2nc(C(F)(F)F)[nH]c2c1 [Example Compound 34, 4,4′-(2-(trifluoromethyl)-1H-benzo[d]imidazole-4,6-diyl)bis(3,5-dimethylixaole)]	
≤ 300	≤ 300	≤ 300	300 to 3000	COc1ccc(F)cc1-c1cc(-c2c(C)noc2C)cc2[nH]c(C)nc12 [Example Compound 112, 4-(4-(5-fluoro-2-methoxy-phenyl)-2-methyl-1H-benzo[d]imidazol-6-yl)-3,5-dimethyl-isoxazole]	
